In assay [1] the target is T1, Glucocorticoid Receptor (GR) (Homo sapiens, UniProt P04150).
T1 construct: purchased Invitrogen P2893
T1 sequence (P04150 1-777): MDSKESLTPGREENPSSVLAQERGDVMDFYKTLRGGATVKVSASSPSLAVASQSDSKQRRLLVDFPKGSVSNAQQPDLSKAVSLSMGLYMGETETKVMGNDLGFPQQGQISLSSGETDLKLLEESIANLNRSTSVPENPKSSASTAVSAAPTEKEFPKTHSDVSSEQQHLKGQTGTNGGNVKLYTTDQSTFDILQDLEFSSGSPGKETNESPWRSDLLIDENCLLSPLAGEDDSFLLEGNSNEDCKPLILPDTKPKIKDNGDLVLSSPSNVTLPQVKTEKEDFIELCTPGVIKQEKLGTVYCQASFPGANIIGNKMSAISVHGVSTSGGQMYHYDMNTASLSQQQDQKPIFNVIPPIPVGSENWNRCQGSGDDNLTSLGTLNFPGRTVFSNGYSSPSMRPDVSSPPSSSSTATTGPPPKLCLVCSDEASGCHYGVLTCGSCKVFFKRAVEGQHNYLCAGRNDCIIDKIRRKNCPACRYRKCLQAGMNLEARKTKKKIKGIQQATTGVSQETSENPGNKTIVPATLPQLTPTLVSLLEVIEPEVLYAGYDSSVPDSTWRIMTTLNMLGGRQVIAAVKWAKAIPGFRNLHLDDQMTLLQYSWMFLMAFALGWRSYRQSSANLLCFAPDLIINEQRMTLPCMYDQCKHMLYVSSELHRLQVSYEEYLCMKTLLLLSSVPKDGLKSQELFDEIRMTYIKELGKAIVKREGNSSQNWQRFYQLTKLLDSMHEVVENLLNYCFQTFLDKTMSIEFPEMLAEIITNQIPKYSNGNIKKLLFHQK
Put plainly: GR Fluorescence Polarization Assay (PolarScreen Glucocorticoid Receptor Competitor Assay, Red). The conditions noted are these: fluorescence polarization binding ranges. The method, boiled down:
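Compound displacement of a red-labelled glucocorticoid from GR, read as fluorescence polarization. Tracer, receptor and 1:4-serially diluted compound were left together overnight at 4° C in the kit assay buffer.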
For orientation: Polarisation of emitted light reports the rotation of a fluorescent probe.

In another assay the test system is IL-6. Kind of assay: A549 Cell Assay to Measure Inflammation Markers (inhibition of IL-1β-induced IL-6). It counts as cell-based. The conditions noted are these: Homo sapiens; A549 cells; read-out: A549 cell assay. Put shortly: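 A549 cells pre-incubated 1 h with compound (10-point dilution, 0.1% DMSO final) in charcoal-stripped serum medium, then stimulated 4 h with 1 ng/mL IL-1β at 37° C. Supernatant IL-6 measured by MSD immunoassay; IC50 and Emax relative to 1 μM prednisolone as 100% inhibition; viability checked by CellTiter-Glo.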

Another assay has as its system OCN. Put plainly: MG-63 Cell Assay to Measure Bone Markers (inhibition of Vitamin K/Vitamin D-induced OCN). Type of assay: cell-based. The conditions noted are these: Homo sapiens, MG63 cells. The method, then:
MG-63 Cell Assay to Measure Bone Markers
MG-63 cells were cultured in culture media containing ascorbic acid (DMEM/F12 supplemented with 10% FBS, 1% HEPES, 100 U/mL-100 μg/mL Pen-Strep, and 100 μg/mL of ascorbic acid) for, minimally, 1 week before study. MG-63 cells were seeded (4E4 cells/well) in 96-well assay plates in culture medium (200 μL/well.) After overnight culture in an incubator set to 37° C., 4.9% CO2, and 90% humidity, media was removed from adherent cells by aspiration and replaced with 100 μL/well assay medium, DMEM/F12 supplemented with 5% Charcoal Stripped Serum, 1% HEPES, 100 U/mL-100 μg/mL Pen-Strep, and 100 μg/mL of ascorbic acid. Compounds were prepared with DMSO and serial diluted (1:3, 1:4, or 1:5) with DMSO in dilution plate(s) to give 10 dilution points for each compound tested. Further dilution (1:250) of compound was made into assay medium and 50 μL/well diluted drug or DMSO/media control was applied to cells. After a 1 h pre-incubation in a temperature, CO2, and humidity controlled incubator, set to 37° C., 50 μL/well of 40 nM Vitamin K and 400 nM Vitamin D that were diluted in assay media were applied to plates. Assay plates, with a final volume of 200 μL/well and final concentrations of 0.1% DMSO, 10 nM Vitamin K, and 100 nM Vitamin D, were returned to incubator for overnight culture. Next, plates were spun at 183 g (1000 rpm in Beckman/Coulter Allegra 6KR centrifuge) for 10 min. Cell-free supenatant (150 μL/well) was collected and OCN was measured by MSD kit, following protocol of manufacturer, and using MSD SECTOR Imager 6000 instrument. Potency of drug to inhibit OCN was determined using the percent reduction of measured OCN in wells with drug compared to control wells without drug, and relative to (100% inhibition) positive control sample of 10 μM prednisolone. Results were represented as IC50 and Emax values. To verify that viable cell numbers were similar across plate(s), and not confounding compound IC50 data interpretation, the remaining 50 μL/well of cells and media (after removal of supernatant) were used to run Cell Titer-Glo Assay per directions of manufacturer.

Our source for the IC50 values is patent publication US9193744B2, “Heterocyclic nuclear hormone receptor modulators” (AbbVie Inc., priority 2012, dated 2015).

pIC50: −log10 of the molar value.

Take `CC[C@@]12CC[C@@](O)(C(F)(F)F)C[C@@H]1CCCc1cc3c(cnn3-c3ccc(F)cc3)cc12` (racemic) [Example 1, (3S,4aS,12bR)-12b-Ethyl-9-(4-fluoro-phenyl)-3-trifluoromethyl-1,2,3,4,4a, 5,6,7,9,12b-decahydro-9,10-diaza-benzo[3,4]cyclohepta[1,2-f]inden-3-ol; compound with (3R,4aR,12bS)-12b-ethyl-9-(4-fluoro-phenyl)-3-trifluoromethyl-1,2,3,4,4a,5,6,7,9,12b-decahydro-9,10-diaza-benzo[3,4]cyclohepta[1,2-f]inden-3-ol]: the pIC50 (in assay [1]; in the assay on IL-6; in the assay with OCN) was above 7.00 throughout.

For `CCC[C@]1(O)CC[C@@]2(CC)c3cc4cnn(-c5ccc(F)cc5)c4cc3CCC[C@@H]2C1` (racemic) [Example 4, (3S,4aR,12bR)-12b-Ethyl-9-(4-fluoro-phenyl)-3-propyl-1,2,3,4,4a,5,6,7,9,12b-decahydro-9,10-diaza-benzo[3,4]cyclohepta[1,2-f]inden-3-ol; compound with (3R,4aS,12bS)-12b-ethyl-9-(4-fluoro-phenyl)-3-propyl-1,2,3,4,4a,5,6,7,9,12b-decahydro-9,10-diaza-benzo[3,4]cyclohepta[1,2-f]inden-3-ol], the pIC50 was above 7.00 in assay [1], 6.00 to 7.00 in the assay on IL-6 and above 7.00 in the assay with OCN.

Take `COC[C@@]1(O)CC[C@@]2(Cc3ccccn3)c3cc4cnn(-c5ccc(F)cc5)c4cc3CCC[C@H]2C1` (racemic) [Example 11]: the pIC50 (in assay [1]; with IL-6; in the assay with OCN) was above 7.00 each time.

On to `CC[C@@]12CC[C@](O)(COC)C[C@@H]1CCCc1cc3[nH]ncc3cc12` (racemic) [Example 14, (3R,4aS,12bR)-12b-Ethyl-3-methoxymethyl-1,2,3,4,4a,5,6,7,9,12b-decahydro-9,10-diaza-benzo[3,4]cyclohepta[1,2-f]inden-3-ol; compound with (3S,4aR,12bS)-12b-ethyl-3-methoxymethyl-1,2,3,4,4a,5,6,7,9,12b-decahydro-9,10-diaza-benzo[3,4]cyclohepta[1,2-f]inden-3-ol], for which the pIC50 was above 7.00 in assay [1], below 5.00 with IL-6 and below 5.00 in the assay on OCN.

As for `CC[C@@]12CC[C@@](O)(C(F)(F)F)C[C@@H]1CCCc1cc3c(cnn3-c3ccc(F)cc3)cc12` (single isomer, unassigned) [Example 3], the pIC50 is above 7.00 in assay [1], above 7.00 in the assay with IL-6 and 6.00 to 7.00 with OCN.

For the compound `CCC[C@]1(O)CC[C@@]2(CC)c3cc4cnn(-c5ccc(F)cc5)c4cc3CCC[C@@H]2C1` (single isomer, unassigned) [Example 5], the values for the pIC50 (in assay [1]; in the assay with IL-6; in the assay with OCN) were above 7.00, 6.00 to 7.00 and below 5.00, respectively.

As for `CC[C@@]12CC[C@@](O)(COC)C[C@H]1CCCc1cc3c(cnn3-c3ccc(F)cc3)cc12` (single isomer, unassigned) [Example 7], the values for the pIC50 (in assay [1]; in the assay on IL-6; in the assay on OCN) were above 7.00, above 7.00 and below 5.00, respectively.

As for `CCOC[C@]1(O)CC[C@@]2(CC)c3cc4cnn(-c5ccc(F)cc5)c4cc3CCC[C@@H]2C1` (single isomer, unassigned) [Example 9], the results for the pIC50 (in assay [1]; in the assay on IL-6; in the assay on OCN) were above 7.00, 6.00 to 7.00 and below 5.00, respectively.

`COC[C@@]1(O)CC[C@@]2(Cc3ccccn3)c3cc4cnn(-c5ccc(F)cc5)c4cc3CCC[C@H]2C1` (single isomer, unassigned) [Example 12]: the pIC50 (in assay [1]; in the assay on IL-6; in the assay with OCN) was above 7.00 each time.

For `COC[C@]1(O)CC[C@]2(Cc3ccccn3)c3cc4cnn(-c5ccc(F)cc5)c4cc3CCC[C@@H]2C1` (single isomer, unassigned) [Example 13], the pIC50 (in assay [1]; in the assay on IL-6; in the assay with OCN) was above 7.00 in each case.
